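Step 1: Grow cells in 96-well plates. Step 2: Expose to compound for 48 hours at 5 concentrations. Step 3: Interpolate endpoints linearly; if unreached, use highest concentration. GI50: concentration for 50% inhibition of growth. Definition used: TGI = concentration required for complete inhibition of growth.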 Some results are limits rather than exact numbers.

Nine compounds from PubChem BioAssay (NCI) can be followed below.

Common to all, as to test: NCI tumour cell line growth inhibition, 48 h
The test system of experiment [1] is HCT-15 colon.
Experiment [2] relates to HL-60(TB) leukemia.
For experiment [3], the system named is HT29 colon.
The subject of experiment [4] is KM12 colon.
In experiment [5] the test system is SF-268 CNS.
The subject of experiment [6] is SF-295 CNS.
For experiment [7], the system named is SK-MEL-2 melanoma.
Experiment [8] deals with U251 CNS.
Experiment [9] deals with UACC-257 melanoma.
Experiment [10] deals with UO-31 renal.

Take `C=C1C(=O)O[C@H]2[C@H]1CC/C(COC(=O)NCCc1ccc(OC)cc1)=C\CC[C@@]1(C)O[C@@H]21`: the GI50 is 1740 nM in experiment [1]; 2340 nM in experiment [2]; 2150 nM in experiment [3]; 8.36 µM in experiment [4]; 10.6 µM in experiment [5]; 13.5 µM in experiment [6]. Further, the GI50 was 8.97 µM in experiment [7], 11.1 µM in experiment [8], 2490 nM in experiment [9] and 1760 nM in experiment [10]. The TGI in [1] came to 4.01 µM; in experiment [2], 5.72 µM; in [3] it was 4.71 µM; in experiment [4] it was 24.4 µM; in experiment [5] it was 23.3 µM; in experiment [6], 27.4 µM. In addition, the TGI in [7] came out at 21.9 µM; in experiment [8] it was 23.5 µM; in experiment [9], 6.85 µM; in experiment [10], 3.26 µM.

Consider `Cc1ccc(NC(=O)c2ccnc(C(F)(F)F)c2)cc1-c1cc(OCCO)nc(N2CCOCC2)c1`, for which the GI50 is 2240 nM in experiment [1]; 1050 nM in experiment [2]; 413 nM in [3]; 2.28 µM in experiment [4]; 4.08 µM in experiment [5]; 3.57 µM in experiment [6]. Moreover, the GI50 was 0.192 µM in experiment [7], 4.7 µM in experiment [8], 600 nM in [9] and 495 nM in experiment [10]. The TGI amounted to 19.4 µM in experiment [1]; 6.51 µM in experiment [2]; 14.8 µM in [3]; 22.1 µM in experiment [4]; 23.7 µM in experiment [5]; 17.6 µM in experiment [6]. Moreover, the TGI turned out to be 3.44 µM in experiment [7], 28.8 µM in experiment [8], 12.4 µM in experiment [9] and 13.1 µM in experiment [10].

As for `COc1ccc(NC2=C(Sc3nc(C)cc(C)n3)C(=O)N(Cc3ccccc3)C2=O)cc1Cl`, the GI50 is > 160000 nM in [1]; 140000 nM in [2]; 54500 nM in experiment [3]; > 160 µM in experiment [4]; > 160 µM in [5]; 74.9 µM in [6]. The GI50 is 138 µM in experiment [7], 55 µM in experiment [8], > 160000 nM in [9] and > 160000 nM in [10]. Also, the TGI in experiment [1], in experiment [2], in experiment [3], in experiment [4], in experiment [5] and in [6] was > 160 µM each time. The TGI in [7], in [8], in experiment [9] and in experiment [10] was > 160 µM each time.

For the compound `O=c1c2cc(Br)ccc2oc2ccc(Br)cc12`, the TGI in [1], in experiment [2], in [3], in experiment [4], in experiment [5] and in [6] was > 100 µM each time. In addition, the TGI in [7], in experiment [8], in [9] and in experiment [10] was > 100 µM throughout.

On to `O=C(Nc1ccc(C(F)(F)F)cc1[N+](=O)[O-])C(=O)C(C(=O)c1ccc2ccccc2c1)C1OC(=O)c2ccccc21` (configuration not stated), for which the TGI amounted to 51.4 µM in [1]; 39.6 µM in [2]; 23.9 µM in experiment [3]; 24.4 µM in [4]; 52 µM in [5]; 24.8 µM in [6]. Also, the TGI stood at 29.9 µM in [7], 17.5 µM in [8], 24 µM in experiment [9] and 28.8 µM in [10].

On to `O=[N+]([O-])c1ccc(Cc2nc3ccccc3s2)cc1`, for which the TGI in experiment [1], in experiment [2], in experiment [3], in experiment [4], in experiment [5] and in [6] was > 100 µM each time. In addition, the TGI in experiment [7], in experiment [8], in experiment [9] and in experiment [10] was > 100 µM throughout.

Turning to `N#CCCc1nc2ccc(Br)cc2c(=O)n1-c1ccc(O)c([N+](=O)[O-])c1`, the TGI was 38.3 µM in experiment [1]; 41.9 µM in [2]; > 100 µM in experiment [3]; 34.5 µM in [4]; 63.1 µM in experiment [5]; 47.8 µM in experiment [6]. In addition, the TGI in experiment [7] is 34.7 µM; in experiment [9], 74.3 µM; in experiment [10], 78.9 µM.

Regarding `CC1(C)CCSC(/C=C/c2ccccc2)=N1`, the TGI in experiment [1] was 21.7 µM; in experiment [2], > 100 µM; in [3], 33.1 µM; in experiment [4] it was 26.1 µM; in experiment [5], 80.3 µM; in experiment [6], 40.7 µM. Also, the TGI worked out at 28.8 µM in experiment [7], 34.3 µM in experiment [8] and 27 µM in experiment [9].

Turning to `N=C(c1ccccc1)N1CCCCC1`, the TGI in [2], in [3], in experiment [4], in experiment [5], in [6] and in [7] was > 100 µM throughout. In addition, the TGI in experiment [8], in [9] and in experiment [10] was > 100 µM throughout.
